Source: US12458610B2, “Pharmaceutical composition for treating or preventing diabetic cataract” (KOREA UNIVERSITY RESEARCH AND BUSINESS FOUNDATION, priority 2019, dated 2025)

Experiments:
Format in all cases: in vivo, rat
[1] = Fasting blood sugar level in diabetes model rats, weekly by blood glucose meter; settings: midodrine 1.0 mg/kg/day in drinking water (OLETF-M1.0), from week 9
Source text: (§1) Otsuka Long-Evans Tokushima Fatty (OLETF) rats were used as a diabetes animal model of rats. The OLETF rats are widely used as a type 2 diabetes animal model because fat accumulation and hyperglycemia are induced in the body of the experimental animals and the pathological condition is similar to that of type 2 diabetes in human. Long-Evans Tokushima Otsuka (LETO) rats were used as a normal control group. The OLETF rats were divided into three groups depending on midodrine intake: OLETF, OLETF-M0.3 and OLETF-M1.0. The OLETF group was raised without intake of midodrine, the OLETF-M0.3 group was made to ingest 0.3 mg of midodrine every day per body weight (midodrine 0.3 mg/kg/day), and the OLETF-M1.0 group was made to ingest 1.0 mg of midodrine every day per body weight (midodrine 1.0 mg/kg/day). Midodrine was dissolved in drinking water so that the rats could ingest the corresponding daily dosage.
(§2) The experimental animals were divided into four groups: LETO, OLETF, OLETF-M0.3 and OLETF-M1.0, and all the experimental animals were raised for 12 weeks. During the 12 weeks, the OLETF-M0.3 group and the OLETF-M1.0 group were made to ingest midodrine every day.

[2] = Body weight change in diabetes model rats; settings: OLETF rats; for body weight over time: raising period
Source text: as §1, §2

[3] = tested on: Otsuka Long-Evans Tokushima Fatty (OLETF) rats; test: Onset of cataract in lens by retroillumination imaging (LOCS III C1/P1 or higher); settings: untreated OLETF 8 out of 12 eyes
Source text: as §1, §2

[4] = tested on: Otsuka Long-Evans Tokushima Fatty (OLETF) rats; test: Lens transparency: clarity of graph paper pattern seen through the lens (ImageJ); settings: midodrine 0.3 mg/kg/day for 12 weeks (OLETF-M0.3), untreated OLETF significantly decreased
Source text: as §1, §2

aldose reductase = test: Aldose reductase level in lens by ELISA; settings: OLETF rats, OLETF 38.4±3.1, LETO 37.2±2.8
Source text: as §1, §2
(§3) The levels of aldose reductase, hexokinase and ATP in the lens sample were measured with a spectrophotometer (Spectramax Plus 384; Molecular Devices, Sunnyvale, CA, USA) by ELISA assay.

hexokinase = test: Hexokinase level in lens by ELISA; settings: OLETF rats, untreated OLETF significantly lower than LETO
Source text: as §1, §2, §3

[5] = tested on: AMPK (AMP-activated protein kinase); test: AMPK level in lens; settings: OLETF rats, midodrine 0.3 mg/kg/day (OLETF-M0.3); OLETF 0.0509±0.0293 U/mL
ATP = ATP level in lens by ELISA; settings: OLETF rats, OLETF 2.307±0.225, LETO 2.622±0.146
Source text: as §1, §2, §3

TNFα = TNFα level in blood (plasma); settings: OLETF rats, midodrine 0.3 mg/kg/day (OLETF-M0.3); OLETF 10.667±2.732, LETO 7.23±0.722
Source text: as §1, §2

[6] = midodrine 0.3 mg/kg/day (OLETF-M0.3)
[7] = midodrine 1.0 mg/kg/day (OLETF-M1.0)

Question: With `COc1ccc(OC)c(C(O)CNC(=O)CN)c1` (racemic) [midodrine, (RS)—N-[2-(2,5-dimethoxyphenyl)-2-hydroxyethyl]glycinamide] as the molecule, how does the “fasting blood sugar level as compared to the OLETF group” value [1] read?
Answer: decreased slightly

Question: What about the “body weight compared with the LETO group” value ([2]; midodrine 0.3 mg/kg/day (OLETF-M0.3), from week 9) of the same molecule?
Answer: no significant difference

Question: What about the “body weight over time” value ([2]; midodrine 0.3 mg/kg/day in drinking water (OLETF-M0.3)) of the same molecule?
Answer: decreased slightly with time

Question: And the “body weight over time” value ([2]; midodrine 1.0 mg/kg/day in drinking water (OLETF-M1.0))?
Answer: decreased slightly with time

Question: And the “eyes with cataract observed” value ([3]; midodrine 0.3 mg/kg/day for 12 weeks (OLETF-M0.3))?
Answer: 1 out of 10

Question: What about the “eyes with cataract observed” value ([3]; midodrine 1.0 mg/kg/day for 12 weeks (OLETF-M1.0)) of the same molecule?
Answer: 2 out of 8

Question: What about the “lens transparency compared with the LETO group” value [4] of the same molecule?
Answer: no significant difference

Question: And the “level of aldose reductase in lens” value (aldose reductase; [6])?
Answer: 33.6±2.6 U/L

Question: And the “level of aldose reductase in lens” value (aldose reductase; [7])?
Answer: 34.1±2.8 U/L

Question: And the “hexokinase level in lens as compared to the LETO group” value (hexokinase; [6])?
Answer: no significant difference

Question: And the “hexokinase level in lens as compared to the LETO group” value (hexokinase; [7])?
Answer: no significant difference

Question: What about the “AMPK level in lens as compared to the OLETF group” value [5] of the same molecule?
Answer: significantly increased

Question: And the “level of ATP in lens” value (ATP; [6])?
Answer: 3.065 ± 0.202 ng/mL

Question: And the “level of ATP in lens” value (ATP; [7])?
Answer: 3.025 ± 0.299 ng/mL

Question: And the “level of the inflammatory cytokine TNFα in blood (plasma)” value (TNFα)?
Answer: 5.383 ± 0.984 pg/mL
